Like-named read-outs stand apart in the source and are kept apart here. Non-standard residues stand in square brackets, D forms with d. Residues, ends and D or L forms follow the SMILES beside them. Cha = N[C@@H](CC1CCCCC1)C(=O)O
Columns and labels:
C5a receptor [1] = biological target: T1, C5a receptor (Homo sapiens, UniProt P21730); assay type: binding; conditions: 293 cells present, FIG. 4A; PMN membranes
T1 construct: followed by a 20 μL aliquot of neutrophil membrane; endogenous in cells
T1 sequence (P21730 1-350): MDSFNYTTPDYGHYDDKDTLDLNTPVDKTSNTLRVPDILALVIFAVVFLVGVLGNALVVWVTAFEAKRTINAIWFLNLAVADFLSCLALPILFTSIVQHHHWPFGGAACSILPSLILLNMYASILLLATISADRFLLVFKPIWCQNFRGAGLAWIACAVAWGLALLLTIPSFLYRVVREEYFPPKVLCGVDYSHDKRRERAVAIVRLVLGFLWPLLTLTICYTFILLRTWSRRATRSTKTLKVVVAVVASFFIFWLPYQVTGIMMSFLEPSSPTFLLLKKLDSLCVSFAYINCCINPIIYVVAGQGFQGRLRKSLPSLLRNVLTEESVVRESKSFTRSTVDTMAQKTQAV
Excerpt: FIGS. 4A, 4B and 4C. (A) Competition binding curve using ^125 I-labeled intact C5a and unlabeled C013 peptide in the presence and absence of protease secreting cells.
(B) Competition binding curve using ^125 I-labeled intact C5a and unlabeled C028 peptide in the presence and absence of protease secreting cells.
(C) Competition binding curve using ^125 I-labeled intact C5a and unlabeled C013 and C028 peptides in the presence and absence of protease secreting cells in the presence or absence of protease inhibitor.
We therefore attempted, and succeeded, to improve on this radioligand by identifying a compound with lower non-specific binding, and higher binding affinity. We developed the compound C013, ^125 I-Tyr Phe Lys Ala Cha Gly Leu dPhe Arg, SEQ.ID:2:, which had about 30-fold the binding affinity of ^125 I-C009.

C5a receptor [2] = conditions: cited from earlier work
C5a receptor [3] = conditions: literature; cited from earlier work

CC(C)C[C@H](NC(=O)CNC(=O)[C@H](CC1CCCCC1)NC(=O)[C@H](C)NC(=O)[C@H](CCCCN)NC(=O)[C@@H](N)Cc1ccccc1)C(=O)N[C@H](Cc1ccccc1)C(=O)N[C@@H](CCCNC(=N)N)C(=O)O [C013a] (H-FKA[Cha]GL[dF]R-OH)
loss of potency in displacement of 125I-C5a in the presence of 293 cells (C5a receptor [1]): about 100 fold

C-terminal C5a octapeptide: C-terminal C5a octapeptide which retained receptor binding activity (Kawai et al.) (HKDMQLGR; C5a anaphylatoxin; UniProt P01031 744-751, looked up, fragment)
C5a binding in words (C5a receptor [2]; literature): retained receptor binding activity

natural C-terminus of C5a: synthetic peptide consisting of the C-terminal eight amino acids of C5a (HKDMQLGR; C5a anaphylatoxin; UniProt P01031 744-751, looked up, fragment) [reference compound]
Ki (C5a receptor [2]; C-terminal eight residues of C5a, read-out: Ki, inhibition of C5a binding): 300 µM | agonist properties in words (C5a receptor [3]): has agonist properties

B1: Phe for His67 substituted C5a peptide: Phe for His67 substituted C5a peptide (Mollison et al.) (peptide, UniProt P01031 678-751, looked up, variant H67F)
C5a anaphylatoxin: TLQKKIEEIAAKYKHSVVKKCCYDGACVNNDETCEQRAARISLGPRCIKAFTECCVVASQLRANISFKDMQLGR
modifications: C5a anaphylatoxin
Ki (C5a receptor [2]; literature, read-out: Ki for C5a binding): 0.26 µM

Reference: US5614370A, “Assay to identify human C5a antagonists and agonists” (Merck & Co., Inc., priority 1994, dated 1997)
